Measurements published in patent publication US20160219881A1, “HERBICIDALLY ACTIVE 2-HALOGEN-4-ALKYNYL-PHENYL-PYRAZOLIDINE-DIONE OR PYRROLIDINE-DIONE DERIVATIVES” (SYNGENTA LIMITED, priority 2013, published 2016).

How the values were obtained:
Format in all cases: in vivo
[1] = test system: Alopecurus myosuroides (ALOMY); test: Test 1A glasshouse assay, pre-emergence herbicidal activity; conditions: 312 h, 13 days after application, read-out: Pre-Emergence Herbicidal Activity (% Phytotoxicity) ALOMY
Description: (§1) Seeds of a variety of test species are sown in standard soil (usually sandy soil) in pots. After cultivation for one day (pre-emergence) or after 8 days cultivation (post-emergence) under controlled conditions in a glasshouse (at 24/16° C., day/night; 14 hours light; 65% humidity), the plants are sprayed with an aqueous spray solution derived from the formulation of the technical active ingredient (compound) in acetone/water (50:50) solution containing 0.5% Tween 20 (polyoxyethylene sorbitan monolaurate, CAS RN 9005-64-5). The test plants are then grown under controlled conditions in a glasshouse (at 24/16° C., day/night; 14 hours light; 65% humidity) and watered twice daily. 13 days after application of the test compounds, for pre- and post-emergence, the test is evaluated visually for percentage phytotoxicity to each plant (where 100%=total damage to plant; 0%=no damage to plant).
Alopecurus myosuroides (ALOMY), Setaria faberi (SETFA), Echinochloa crus-galli (ECHCG), Amaranthus retroflexus (AMARE), and Abutilon theophasti Medik. (ABUTH, common English name “velvetleaf”). Of these, Alopecurus myosuroides (ALOMY), Setaria faberi (SETFA), and Echinochloa crus-galli (ECHCG) are grassy monocotyledonous weeds.
Lolium perenne (LOLPE), Triticum aestivum (TRZAW, winter wheat), Alopecurus myosuroides (ALOMY), Echinochloa crus-galli (ECHCG), and Avena fatua (AVEFA). All these are grassy monocotyledonous weeds and/or (for wheat) grassy crops.

[2] = test system: Echinochloa crus-galli (ECHCG); test: as above; conditions: 312 h, 13 days after application, read-out: Pre-Emergence Herbicidal Activity (% Phytotoxicity) ECHCG
Description: as §1
Alopecurus myosuroides (ALOMY), Setaria faberi (SETFA), Echinochloa crus-galli (ECHCG), Amaranthus retroflexus (AMARE), and Abutilon theophasti Medik. (ABUTH, common English name “velvetleaf”). Of these, Alopecurus myosuroides (ALOMY), Setaria faberi (SETFA), and Echinochloa crus-galli (ECHCG) are grassy monocotyledonous weeds. […]

[3] = test system: Alopecurus myosuroides (ALOMY); test: Biological Example 3 (Test 2 glasshouse assay), post-emergence herbicidal activity
Description: (§2) Seeds of a variety of monocotyledonous and dicotyledonous test plants are sown in standard soil in pots. The plants are cultivated for one day (for pre-emergence) or for about 12 days (range=10-13 days) (for post-emergence) under controlled conditions in a glasshouse (warm climate species at 24/18° C., cool climate species at 20/16° C., both at day/night; 16 hours light; 65% humidity).
(§3) An “instant formulation”, known as the “IF50”, containing 50 g/litre (i.e. 5% w/v) of the “technical” (i.e. unformulated) active ingredient is prepared by dissolving the active ingredient in a mixture of organic solvents and emulsifier, details of which are provided in the Table below. This IF50 is then mixed with a small, variable amount of acetone to aid dissolution, before addition of a 0.2% v/v aqueous solution of the adjuvant X-77 (which is a mixture of alkyl aryl polyoxyethylene glycols and free fatty acids in isopropanol, CAS Registry number 11097-66-8), as the aqueous diluent, to form an aqueous spray solution which contains a predetermined concentration of the active ingredient (which varies depending on the application rate of the active ingredient to the plants) and 0.2% v/v of the adjuvant X-77. This aqueous spray solution is then sprayed onto the plants, after one day's cultivation (for pre-emergence) or after about 12 days' cultivation (for post-emergence).
(§4) The test plants are then grown on, in a glasshouse (greenhouse) under controlled conditions (at either 24/18° C. or 20/16° C. (day/night) as mentioned above; 16 hours light; 65% humidity) and are watered twice daily. Either 15 days after application of the test compound (15 DAA) (for post-emergence), or 20 days after application of the test compound (20 DAA) (for pre-emergence), the test plants are evaluated visually, and an assessed percentage phytotoxicity score is given for each compound application on each plant species (where 100%=total damage to plant; 0%=no damage to plant).
(§5) Cool climate crop plants: Triticum aestivum (TRZAW, winter wheat), Brassica napus (BRSNN, rape, also called oilseed rape or rapeseed), Beta vulgaris (BEAVA, sugar beet). Warm climate crop plants: Glycine max (GLXMA, soybean). Cool climate (“cool season”) grassy monocotyledonous weeds: Alopecurus myosuroides (ALOMY), Avena fatua (AVEFA), Lolium perenne (LOLPE). Warm climate (“warm season”) grassy monocotyledonous weeds: Setaria faberi (SETFA), SORVU (Sorghum bicolor (L.) Moench ssp. Bicolor, or Sorghum vulgare Pers.), Digitaria sanguinalis (DIGSA), Echinochloa crus-galli (ECHCG), and Brachiaria plantaginea (BRAPL).

[4] = test system: Beta vulgaris (BEAVA, sugar beet); test: as above
Description: as §2, §3, §4, §5

[5] = test system: Brachiaria plantaginea (BRAPL); test: as above
Description: as §2, §3, §4, §5

[6] = test system: Brassica napus (BRSNN, rape); test: as above
Description: as §2, §3, §4, §5

[7] = test system: Digitaria sanguinalis (DIGSA); test: as above
Description: as §2, §3, §4, §5

[8] = test system: Echinochloa crus-galli (ECHCG); test: as above
Description: as §2, §3, §4, §5

[9] = test system: Glycine max (GLXMA, soybean); test: as above
Description: as §2, §3, §4, §5

Lolium perenne (LOLPE) = test: as above
Description: as §2, §3, §4, §5

[10] = test system: SORVU (Sorghum bicolor (L.) Moench ssp. Bicolor, or Sorghum vulgare Pers.); test: as above
Description: as §2, §3, §4, §5

Setaria faberi (SETFA) = test: as above
Description: as §2, §3, §4, §5

[11] = test system: Triticum aestivum (TRZAW, winter wheat); test: as above
Description: as §2, §3, §4, §5

Structure (SMILES) | inhibition at 250 g/ha [1] [%] | inhibition at 250 g/ha [2] [%] | Post-Emergence Herbicidal Activity (Percentage Phytotoxicity) ALOMY ([3]; 30 g/ha) [%] | Post-Emergence Herbicidal Activity (Percentage Phytotoxicity) ALOMY ([3]; 125 g/ha) [%] | Post-Emergence Herbicidal Activity (Percentage Phytotoxicity) BEAVA ([4]; 30 g/ha) [%] | Post-Emergence Herbicidal Activity (Percentage Phytotoxicity) BEAVA ([4]; 125 g/ha) [%] | Post-Emergence Herbicidal Activity (Percentage Phytotoxicity) BRAPL ([5]; 30 g/ha (rate by row order)) [%] | Post-Emergence Herbicidal Activity (Percentage Phytotoxicity) BRAPL ([5]; 125 g/ha (rate by row order)) [%] | Post-Emergence Herbicidal Activity (Percentage Phytotoxicity) BRSNN ([6]; 30 g/ha) [%] | Post-Emergence Herbicidal Activity (Percentage Phytotoxicity) BRSNN ([6]; 125 g/ha) [%] | Post-Emergence Herbicidal Activity (Percentage Phytotoxicity) DIGSA ([7]; 30 g/ha (rate by row order)) [%] | Post-Emergence Herbicidal Activity (Percentage Phytotoxicity) DIGSA ([7]; 125 g/ha (rate by row order)) [%] | Post-Emergence Herbicidal Activity (Percentage Phytotoxicity) ECHCG ([8]; 30 g/ha (rate by row order)) [%] | Post-Emergence Herbicidal Activity (Percentage Phytotoxicity) ECHCG ([8]; 125 g/ha (rate by row order)) [%] | Post-Emergence Herbicidal Activity (Percentage Phytotoxicity) GLXMA ([9]; 30 g/ha) [%] | Post-Emergence Herbicidal Activity (Percentage Phytotoxicity) GLXMA ([9]; 125 g/ha) [%] | Post-Emergence Herbicidal Activity (Percentage Phytotoxicity) LOLPE (Lolium perenne (LOLPE); 30 g/ha) [%] | Post-Emergence Herbicidal Activity (Percentage Phytotoxicity) LOLPE (Lolium perenne (LOLPE); 125 g/ha) [%] | Post-Emergence Herbicidal Activity (Percentage Phytotoxicity) SORVU ([10]; 30 g/ha (rate by row order)) [%] | Post-Emergence Herbicidal Activity (Percentage Phytotoxicity) SORVU ([10]; 125 g/ha (rate by row order)) [%] | further results
CC#Cc1cc(C)c(-c2c(OC(=O)C(C)(C)C)n(C)n(C)c2=O)c(C)c1 [Compound P1] | 100 | 100 | 60 | 70 | 10 | 40 | 70 | 100 | 80 | 80 | 90 | 100 | 70 | 100 | 30 | 40 | 50 | 80 | 60 | 80 | Post-Emergence Herbicidal Activity (Percentage Phytotoxicity) ALOMY ([3]; 8 g/ha): 40%; Post-Emergence Herbicidal Activity (Percentage Phytotoxicity) BEAVA ([4]; 8 g/ha): 30%; Post-Emergence Herbicidal Activity (Percentage Phytotoxicity) BRAPL ([5]; 8 g/ha (rate by row order)): 60%; Post-Emergence Herbicidal Activity (Percentage Phytotoxicity) BRSNN ([6]; 8 g/ha): 0%; Post-Emergence Herbicidal Activity (Percentage Phytotoxicity) DIGSA ([7]; 8 g/ha (rate by row order)): 80%; Post-Emergence Herbicidal Activity (Percentage Phytotoxicity) ECHCG ([8]; 8 g/ha (rate by row order)): 20%; Post-Emergence Herbicidal Activity (Percentage Phytotoxicity) GLXMA ([9]; 8 g/ha): 10%; Post-Emergence Herbicidal Activity (Percentage Phytotoxicity) LOLPE (Lolium perenne (LOLPE); 8 g/ha): 30%; Post-Emergence Herbicidal Activity (Percentage Phytotoxicity) SORVU ([10]; 8 g/ha (rate by row order)): 50%; Post-Emergence Herbicidal Activity (Percentage Phytotoxicity) SETFA (Setaria faberi (SETFA); 8 g/ha (rate by row order)): 20%; Post-Emergence Herbicidal Activity (Percentage Phytotoxicity) SETFA (Setaria faberi (SETFA); 30 g/ha (rate by row order)): 90%; Post-Emergence Herbicidal Activity (Percentage Phytotoxicity) SETFA (Setaria faberi (SETFA); 125 g/ha (rate by row order)): 100%; Post-Emergence Herbicidal Activity (Percentage Phytotoxicity) TRZAW ([11]; 8 g/ha): 0%; Post-Emergence Herbicidal Activity (Percentage Phytotoxicity) TRZAW ([11]; 30 g/ha): 0%; Post-Emergence Herbicidal Activity (Percentage Phytotoxicity) TRZAW ([11]; 125 g/ha): 70%
CC#Cc1cc(C)c(C2C(=O)C(Cc3ccccn3)N(C)C2=O)c(C)c1 (stereo not drawn) [Compound A50, 3-(2,6-dimethyl-4-prop-1-ynyl-phenyl)-1-methyl-5-(2-pyridylmethyl)pyrrolidine-2,4-dione] | 90 | 90 |  |  |  |  |  |  |  |  |  |  |  |  |  |  |  |  |  |  | inhibition at 62.5 g/ha ([1]; 62.5 g/ha): 70%; inhibition at 62.5 g/ha ([2]; 62.5 g/ha): 70%
CC#Cc1cc(C)c(-c2c(OC(=O)C(C)(C)C)n3n(c2=O)CCOCC3)c(C)c1 [Compound P4] | 100 | 100 | 60 | 70 | 40 | 50 | 90 | 100 | 80 | 80 | 90 | 90 | 90 | 100 | 60 | 70 | 40 | 50 | 80 | 100 | Post-Emergence Herbicidal Activity (Percentage Phytotoxicity) ALOMY ([3]; 8 g/ha): 20%; Post-Emergence Herbicidal Activity (Percentage Phytotoxicity) BEAVA ([4]; 8 g/ha): 30%; Post-Emergence Herbicidal Activity (Percentage Phytotoxicity) BRAPL ([5]; 8 g/ha (rate by row order)): 90%; Post-Emergence Herbicidal Activity (Percentage Phytotoxicity) BRSNN ([6]; 8 g/ha): 70%; Post-Emergence Herbicidal Activity (Percentage Phytotoxicity) DIGSA ([7]; 8 g/ha (rate by row order)): 80%; Post-Emergence Herbicidal Activity (Percentage Phytotoxicity) ECHCG ([8]; 8 g/ha (rate by row order)): 60%; Post-Emergence Herbicidal Activity (Percentage Phytotoxicity) GLXMA ([9]; 8 g/ha): 50%; Post-Emergence Herbicidal Activity (Percentage Phytotoxicity) LOLPE (Lolium perenne (LOLPE); 8 g/ha): 30%; Post-Emergence Herbicidal Activity (Percentage Phytotoxicity) SORVU ([10]; 8 g/ha (rate by row order)): 70%; Post-Emergence Herbicidal Activity (Percentage Phytotoxicity) SETFA (Setaria faberi (SETFA); 8 g/ha (rate by row order)): 70%; Post-Emergence Herbicidal Activity (Percentage Phytotoxicity) SETFA (Setaria faberi (SETFA); 30 g/ha (rate by row order)): 80%; Post-Emergence Herbicidal Activity (Percentage Phytotoxicity) SETFA (Setaria faberi (SETFA); 125 g/ha (rate by row order)): 90%; Post-Emergence Herbicidal Activity (Percentage Phytotoxicity) TRZAW ([11]; 8 g/ha): 10%; Post-Emergence Herbicidal Activity (Percentage Phytotoxicity) TRZAW ([11]; 30 g/ha): 40%; Post-Emergence Herbicidal Activity (Percentage Phytotoxicity) TRZAW ([11]; 125 g/ha): 80%
CC#Cc1cc(C)c(C2C(=O)N(C)N(C)C2=O)c(C)c1 [Compound A1] | 0 | 30 | 10 | 70 | 0 | 10 | 70 | 100 | 70 | 70 | 80 | 90 | 70 | 90 | 30 | 70 | 30 | 80 | 70 | 80 | Post-Emergence Herbicidal Activity (Percentage Phytotoxicity) TRZAW ([11]; 30 g/ha): 30%; Post-Emergence Herbicidal Activity (Percentage Phytotoxicity) TRZAW ([11]; 125 g/ha): 80%
